Like-named read-outs stand apart in the source and are kept apart here.
Key:
[1] = biological target: T1, CDK2/CycE (Homo sapiens, UniProt P24941); experiment: CDK2/CycE kinase assay (TR-FRET); assay type: biochemical; settings: avg, read-out: CDK2 avg (IC50 [mol/l])
T1 construct: GST; purchased ProQinase GmbH (Freiburg, Germany); host or cells: insect cells (Sf9)
Method in brief: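 Read-out is a TR-FRET 665/620 nm emission ratio from EDTA-stopped reactions detected with anti-pRB(pSer807/pSer811), Eu-labelled anti-mouse IgG and streptavidin-XL665, scaled between no-enzyme and uninhibited wells. Reaction: Sf9-expressed GST-CDK2/GST-CycE, 15 min compound preincubation, 10 μM ATP, 0.75 μM biotin-peptide, 25 min, 22° C., pH 8.0 Tris buffer.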

[2] = system: HeLa; experiment: Proliferation assay (crystal violet), HeLa; assay type: cell-based; settings: HeLa cells, 4 days incubation, crystal violet staining, read-out: IC50 inhibition of proliferation, HeLa
Method in brief: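 Absorbance at 595 nm of crystal-violet-stained cells after 4 days' exposure to 0.001–10 μM compound (0.5% DMSO). Values normalized to a day-0 plate (0%) and untreated cells (100%); IC50 by 4-parameter fit.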

Row | Compound | IC50 [1] [nM] | IC50 ([2]; Homo sapiens, HeLa, 96 h) [nM] | IC50 [2] [nM]
1 | Cc1nsc(Nc2cnc3ccccc3n2)c1C(=O)Nc1cccc(C(=O)N[C@H](C(=O)OC(C)(C)C)[C@@H](C)OC(C)(C)C)c1 [Example 57, tert-Butyl O-tert-butyl-N-[3-({[3-methyl-5-(quinoxalin-2-ylamino)-1,2-thiazol-4 yl]carbonyl}amino)-benzoyl]threoninate] | ≥ 20000 | 10000 | –
2 | Cc1nsc(Nc2cnc(C(F)(F)F)cn2)c1C(=O)Nc1ccc(F)c(OC[C@H]2CCCN(CC(F)F)C2)c1 [Example 400, N-(3-{[(3S)-1-(2,2-difluoroethyl)piperidin-3-yl]methoxy}-4-fluorophenyl)-3-methyl-5-{[5-(trifluoromethyl)pyrazin-2-yl]amino}-1,2-thiazole-4-carboxamide] | > 20000 | 770 | –
3 | Cc1nsc(Nc2cnc(C(F)(F)F)cn2)c1C(=O)Nc1ccc(OCC2CCN(CC(F)F)CC2(F)F)nc1 (stereo not shown) [Example 401, N-(6-{[1-(2,2-difluoroethyl)-3,3-difluoropiperidin-4-yl]methoxy}pyridin-3-yl)-3-methyl-5-{[5-(trifluoromethyl)pyrazin-2-yl]amino}-1,2-thiazole-4-carboxamide] | > 20000 | 430 | –
4 | Cc1nsc(Nc2cnc(C(F)(F)F)cn2)c1C(=O)Nc1ccc(F)c(OC[C@@H]2CCN(CC(F)F)C2)c1 [Example 403, N-(3-{[(3R)-1-(2,2-difluoroethyl)pyrrolidin-3-yl]methoxy}-4-fluorophenyl)-3-methyl-5-{[5-(trifluoromethyl)pyrazin-2-yl]amino}-1,2-thiazole-4-carboxamide] | > 20000 | 450 | –
5 | Cc1nsc(Nc2cnc(C(F)(F)F)cn2)c1C(=O)Nc1ccc(OC[C@H]2CCN(CC(F)(F)F)C2)nc1 [Example 404, 3-Methyl-N-(6-{[(3S)-1-(2,2,2-trifluoroethyl)pyrrolidin-3-yl]methoxy}pyridin-3-yl)-5-{[5-(trifluoromethyl)pyrazin-2-yl]amino}-1,2-thiazole-4-carboxamide] | > 20000 | 250 | –
6 | CCN1CCC(Oc2ccc(NC(=O)c3c(C)nsc3Nc3cnc(C(F)(F)F)cn3)cn2)C(F)(F)C1 (stereo not shown) [Example 406, N-{6-[(1-Ethyl-3,3-difluoropiperidin-4-yl)oxy]pyridin-3-yl}-3-methyl-5-{[5-(trifluoromethyl)pyrazin-2-yl]amino}-1,2-thiazole-4-carboxamide] | > 20000 | 160 | –
7 | CCCN1C[C@H](F)[C@H](Oc2ccc(NC(=O)c3c(C)nsc3Nc3cnc(C(F)(F)F)cn3)cn2)C1 [Example 408, N-(6-{[(3R,4S)-4-Fluoro-1-propylpyrrolidin-3-yl]oxy}pyridin-3-yl)-3-methyl-5-{[5-(trifluoromethyl)pyrazin-2-yl]amino}-1,2-thiazole-4-carboxamide] | > 20000 | 260 | –
8 | Cc1nsc(Nc2cnc(C(F)(F)F)cn2)c1C(=O)Nc1ccc(O[C@@H]2CN(CCC(F)(F)F)C[C@@H]2F)nc1 [Example 409, N-(6-{[(3R,4S)-4-Fluoro-1-(3,3,3-trifluoropropyl)pyrrolidin-3-yl]oxy}pyridin-3-yl)-3-methyl-5-{[5-(trifluoromethyl)pyrazin-2-yl]amino}-1,2-thiazole-4-carboxamide] | > 20000 | 190 | –
9 | Cc1nsc(Nc2cnc(C(F)(F)F)cn2)c1C(=O)Nc1ccc(O[C@@H]2CN(CC(F)(F)F)C[C@@H]2F)nc1 [Example 410, N-(6-{[(3R,4S)-4-Fluoro-1-(2,2,2-trifluoroethyl)pyrrolidin-3-yl]oxy}pyridin-3-yl)-3-methyl-5-{[5-(trifluoromethyl)pyrazin-2-yl]amino}-1,2-thiazole-4-carboxamide] | > 20000 | 170 | –
10 | Cc1nsc(Nc2cnc(C(F)(F)F)cn2)c1C(=O)Nc1ccc(F)c(O[C@@H]2CCN(CC(F)F)C2)c1 [Example 412, N-(3-{[(3R)-1-(2,2-Difluoroethyl)pyrrolidin-3-yl]oxy}-4-fluorophenyl)-3-methyl-5-{[5-(trifluoromethyl)pyrazin-2-yl]amino}-1,2-thiazole-4-carboxamide] | > 20000 | 260 | –
11 | Cc1nsc(Nc2cnc(C(F)(F)F)cn2)c1C(=O)Nc1ccc(F)c(O[C@@H]2CCN(CC(F)(F)F)C2)c1 [Example 413, N-(4-Fluoro-3-{[(3R)-1-(2,2,2-trifluoroethyl)pyrrolidin-3-yl]oxy}phenyl)-3-methyl-5-{[5-(trifluoromethyl)pyrazin-2-yl]amino}-1,2-thiazole-4-carboxamide] | > 20000 | 270 | –

Further lines, results first:

Row | IC50 [1] [nM] | IC50 ([2]; Homo sapiens, HeLa, 96 h) [nM] | IC50 [2] [nM] | Compound
12 | ≥ 20000 | 9800 | – | Cc1nsc(Nc2cnc3ccccc3n2)c1C(=O)Nc1cccc(C(=O)N[C@@H](CCC(N)=O)C(=O)OC(C)(C)C)c1 [Example 56, tert-butyl N^2-[3-({[3-methyl-5-(quinoxalin-2-ylamino)-1,2-thiazol-4-yl]carbonyl}amino)-benzoyl]glutaminate]
13 | > 20000 | 220 | 410 | Cc1nsc(Nc2cnc(C(F)(F)F)cn2)c1C(=O)Nc1ccc(F)c(OCC2CCN(CC(F)(F)F)C2)c1 (stereo not shown) [Example 318, N-(4-fluoro-3-{[1-(2,2,2-trifluoroethyl)pyrrolidin-3-yl]methoxy}phenyl)-3-methyl-5-{[5-(trifluoromethyl)pyrazin-2-yl]amino}-1,2-thiazole-4-carboxamide]
14 | > 20000 | 290 | – | Cc1nsc(Nc2cnc(C(F)(F)F)cn2)c1C(=O)Nc1ccc(OC[C@H]2CCCN(CCC(F)(F)F)C2)nc1 [Example 378, 3-methyl-5-{[5-(trifluoromethyl)pyrazin-2-yl]amino}-N-(6-{[(3S)-1-(3,3,3-trifluoropropyl)piperidin-3-yl]methoxy}pyridin-3-yl)-1,2-thiazole-4-carboxamide]
15 | > 20000 | 380 | – | CCCN1CCC(COc2ccc(NC(=O)c3c(C)nsc3Nc3cnc(C(F)(F)F)cn3)cn2)C(F)(F)C1 (stereo not shown) [Example 394, N-{6-[(3,3-difluoro-1-propylpiperidin-4-yl)methoxy]pyridin-3-yl}-3-methyl-5-{[5-(trifluoromethyl)pyrazin-2-yl]amino}-1,2-thiazole-4-carboxamide]
16 | > 20000 | 340 | – | Cc1nsc(Nc2cnc(C(F)(F)F)cn2)c1C(=O)Nc1ccc(OCC2CCN(CCC(F)(F)F)CC2(F)F)nc1 (stereo not shown) [Example 402, N-(6-{[3,3-difluoro-1-(3,3,3-trifluoropropyl)piperidin-4-yl]methoxy}pyridin-3-yl)-3-methyl-5-{[5-(trifluoromethyl)pyrazin-2-yl]amino}-1,2-thiazole-4-carboxamide]
17 | > 20000 | 330 | – | Cc1nsc(Nc2cnc(C(F)(F)F)cn2)c1C(=O)Nc1ccc(OCCN2CCC(F)(F)CC2)nc1 [Example 407, N-{6-[2-(4,4-Difluoropiperidin-1-yl)ethoxy]pyridin-3-yl}-3-methyl-5-{[5-(trifluoromethyl)pyrazin-2-yl]amino}-1,2-thiazole-4-carboxamide]
18 | > 20000 | 170 | – | Cc1nsc(Nc2cnc(C(F)(F)F)cn2)c1C(=O)Nc1ccc(O[C@@H]2CN(CC(F)F)C[C@@H]2F)nc1 [Example 411, N-(6-{[(3R,4S)-1-(2,2-Difluoroethyl)-4-fluoropyrrolidin-3-yl]oxy}pyridin-3-yl)-3-methyl-5-{[5-(trifluoromethyl)pyrazin-2-yl]amino}-1,2-thiazole-4-carboxamide]
